Measured values from the NIST ThermoML archive (doi:10.1021/acs.jced.8b00153).
Values joined by “and” are separate entries in the source; they are usually repeats but may differ in a detail not shown here. Equal entries are not always repeated. ± gives the expanded uncertainty stated by the source.

Details: for surface tension liquid-gas: Drop volume; for viscosity / speed of sound / mass density / vapor or sublimation pressure: Liquid; for viscosity: Capillary tube (Ostwald / Ubbelohde) method; for speed of sound: Frequency=3 MHz, Single path-length method; for mass density: Vibrating tube method; for vapor or sublimation pressure: Ebulliometric method (Recirculating still)

CCc1ccco1 [2-ethylfuran]
Details | surface tension liquid-gas [mN/m] | vapor or sublimation pressure [kPa]
278.15 K | 27.22 ± 0.25 | –
280.65 K | 26.91 ± 0.25 | –
283.15 K | 26.59 ± 0.25 | –
285.65 K | 26.31 ± 0.25 | –
288.15 K | 26.01 ± 0.25 | –
289.96 K | – | 4.96 ± 0.1
290.65 K | 25.62 ± 0.25 | –
292.18 K | – | 5.57 ± 0.1
293.15 K | 25.32 ± 0.25 | –
293.77 K | – | 6.05 ± 0.1
295.65 K | 25.09 ± 0.25 | –
295.94 K | – | 6.77 ± 0.1
297.39 K | – | 7.29 ± 0.1
298.15 K | 24.78 ± 0.25 | –
299.52 K | – | 8.105 ± 0.1
300.65 K | 24.43 ± 0.25 | –
301.86 K | – | 9.08 ± 0.1
303.15 K | 24.12 ± 0.25 | –
304.58 K | – | 10.35 ± 0.1
305.65 K | 23.81 ± 0.25 | –
306.32 K | – | 11.27 ± 0.1
308.15 K | 23.51 ± 0.25 | –
308.82 K | – | 12.64 ± 0.1
310.65 K | 23.22 ± 0.24 | –
312.73 K | – | 15.06 ± 0.1
313.15 K | 22.91 ± 0.24 | –

Details | mass density | speed of sound [m/s] | viscosity [mPa·s]
278.15 K, 100 kPa | 920.97 ± 0.51 kg/m3 | 1281 ± 0.71 | 0.6327 ± 0.0065
280.65 K, 100 kPa | 918.26 ± 0.51 kg/m3 | 1270.8 ± 0.71 | 0.6126 ± 0.0064
283.15 K, 100 kPa | 915.55 ± 0.51 kg/m3 and 915.5 ± 0.22 kg/m3 | 1259.4 ± 0.71 | 0.5934 ± 0.0064
283.15 K, 2000 kPa | 917.27 ± 0.23 kg/m3 | – | –
283.15 K, 5000 kPa | 919.69 ± 0.23 kg/m3 | – | –
283.15 K, 7000 kPa | 921.41 ± 0.23 kg/m3 | – | –
283.15 K, 10000 kPa | 923.87 ± 0.23 kg/m3 | – | –
283.15 K, 15000 kPa | 927.84 ± 0.24 kg/m3 | – | –
283.15 K, 20000 kPa | 931.59 ± 0.24 kg/m3 | – | –
283.15 K, 25000 kPa | 935.19 ± 0.25 kg/m3 | – | –
283.15 K, 30000 kPa | 938.66 ± 0.25 kg/m3 | – | –
283.15 K, 35000 kPa | 942.04 ± 0.26 kg/m3 | – | –
283.15 K, 40000 kPa | 945.33 ± 0.26 kg/m3 | – | –
283.15 K, 45000 kPa | 948.5 ± 0.26 kg/m3 | – | –
283.15 K, 50000 kPa | 951.53 ± 0.26 kg/m3 | – | –
283.15 K, 55000 kPa | 954.61 ± 0.27 kg/m3 | – | –
283.15 K, 60000 kPa | 957.6 ± 0.27 kg/m3 | – | –
283.15 K, 65000 kPa | 960.38 ± 0.27 kg/m3 | – | –
285.65 K, 100 kPa | 912.83 ± 0.51 kg/m3 | 1248.7 ± 0.71 | 0.5733 ± 0.0063
288.15 K, 100 kPa | 910.1 ± 0.51 kg/m3 and 910.08 ± 0.22 kg/m3 | 1238.5 ± 0.71 | 0.556 ± 0.0062
288.15 K, 2000 kPa | 911.89 ± 0.23 kg/m3 | – | –
288.15 K, 5000 kPa | 914.37 ± 0.23 kg/m3 | – | –
288.15 K, 7000 kPa | 916.19 ± 0.23 kg/m3 | – | –
288.15 K, 10000 kPa | 918.68 ± 0.24 kg/m3 | – | –
288.15 K, 15000 kPa | 922.7 ± 0.24 kg/m3 | – | –
288.15 K, 20000 kPa | 926.63 ± 0.25 kg/m3 | – | –
288.15 K, 25000 kPa | 930.32 ± 0.25 kg/m3 | – | –
288.15 K, 30000 kPa | 933.89 ± 0.26 kg/m3 | – | –
288.15 K, 35000 kPa | 937.37 ± 0.26 kg/m3 | – | –
288.15 K, 40000 kPa | 940.66 ± 0.27 kg/m3 | – | –
288.15 K, 45000 kPa | 943.92 ± 0.27 kg/m3 | – | –
288.15 K, 50000 kPa | 947.13 ± 0.27 kg/m3 | – | –
288.15 K, 55000 kPa | 950.18 ± 0.27 kg/m3 | – | –
288.15 K, 60000 kPa | 953.28 ± 0.27 kg/m3 | – | –
288.15 K, 65000 kPa | 956.1 ± 0.27 kg/m3 | – | –
290.65 K, 100 kPa | 907.37 ± 0.51 kg/m3 | 1227.6 ± 0.71 | 0.5394 ± 0.0062
293.15 K, 100 kPa | 904.64 ± 0.51 kg/m3 and 904.65 ± 0.22 kg/m3 | 1216.7 ± 0.71 | 0.5214 ± 0.0061
293.15 K, 2000 kPa | 906.44 ± 0.23 kg/m3 | – | –
293.15 K, 5000 kPa | 909.05 ± 0.23 kg/m3 | – | –
293.15 K, 7000 kPa | 910.93 ± 0.23 kg/m3 | – | –
293.15 K, 10000 kPa | 913.5 ± 0.24 kg/m3 | – | –
293.15 K, 15000 kPa | 917.66 ± 0.24 kg/m3 | – | –
293.15 K, 20000 kPa | 921.69 ± 0.25 kg/m3 | – | –
293.15 K, 25000 kPa | 925.54 ± 0.26 kg/m3 | – | –
293.15 K, 30000 kPa | 929.07 ± 0.26 kg/m3 | – | –
293.15 K, 35000 kPa | 932.7 ± 0.27 kg/m3 | – | –
293.15 K, 40000 kPa | 936.06 ± 0.27 kg/m3 | – | –
293.15 K, 45000 kPa | 939.48 ± 0.27 kg/m3 | – | –
293.15 K, 50000 kPa | 942.66 ± 0.28 kg/m3 | – | –
293.15 K, 55000 kPa | 945.78 ± 0.28 kg/m3 | – | –
293.15 K, 60000 kPa | 948.91 ± 0.28 kg/m3 | – | –
293.15 K, 65000 kPa | 951.86 ± 0.28 kg/m3 | – | –
295.65 K, 100 kPa | 901.9 ± 0.51 kg/m3 | 1205.2 ± 0.71 | 0.5061 ± 0.0061
298.15 K, 100 kPa | 899.15 ± 0.51 kg/m3 and 899.11 ± 0.23 kg/m3 | 1194.9 ± 0.71 | 0.4917 ± 0.006
298.15 K, 2000 kPa | 901.01 ± 0.23 kg/m3 | – | –
298.15 K, 5000 kPa | 903.73 ± 0.23 kg/m3 | – | –
298.15 K, 7000 kPa | 905.65 ± 0.24 kg/m3 | – | –
298.15 K, 10000 kPa | 908.34 ± 0.24 kg/m3 | – | –
298.15 K, 15000 kPa | 912.57 ± 0.25 kg/m3 | – | –
298.15 K, 20000 kPa | 916.67 ± 0.25 kg/m3 | – | –
298.15 K, 25000 kPa | 920.61 ± 0.26 kg/m3 | – | –
298.15 K, 30000 kPa | 924.3 ± 0.27 kg/m3 | – | –
298.15 K, 35000 kPa | 928.03 ± 0.27 kg/m3 | – | –
298.15 K, 40000 kPa | 931.52 ± 0.28 kg/m3 | – | –
298.15 K, 45000 kPa | 934.92 ± 0.28 kg/m3 | – | –
298.15 K, 50000 kPa | 938.29 ± 0.28 kg/m3 | – | –
298.15 K, 55000 kPa | 941.41 ± 0.29 kg/m3 | – | –
298.15 K, 60000 kPa | 944.69 ± 0.29 kg/m3 | – | –
298.15 K, 65000 kPa | 947.7 ± 0.29 kg/m3 | – | –
300.65 K, 100 kPa | 896.4 ± 0.51 kg/m3 | 1184.1 ± 0.71 | 0.4774 ± 0.006
303.15 K, 100 kPa | 893.64 ± 0.51 kg/m3 and 893.58 ± 0.23 kg/m3 | 1172.5 ± 0.71 | 0.4637 ± 0.0059
303.15 K, 2000 kPa | 895.61 ± 0.23 kg/m3 | – | –
303.15 K, 5000 kPa | 898.41 ± 0.23 kg/m3 | – | –
303.15 K, 7000 kPa | 900.35 ± 0.24 kg/m3 | – | –
303.15 K, 10000 kPa | 903.06 ± 0.24 kg/m3 | – | –
303.15 K, 15000 kPa | 907.56 ± 0.25 kg/m3 | – | –
303.15 K, 20000 kPa | 911.72 ± 0.26 kg/m3 | – | –
303.15 K, 25000 kPa | 915.8 ± 0.26 kg/m3 | – | –
303.15 K, 30000 kPa | 919.58 ± 0.27 kg/m3 | – | –
303.15 K, 35000 kPa | 923.37 ± 0.28 kg/m3 | – | –
303.15 K, 40000 kPa | 927 ± 0.28 kg/m3 | – | –
303.15 K, 45000 kPa | 930.47 ± 0.29 kg/m3 | – | –
303.15 K, 50000 kPa | 933.84 ± 0.29 kg/m3 | – | –
303.15 K, 55000 kPa | 937.1 ± 0.29 kg/m3 | – | –
303.15 K, 60000 kPa | 940.35 ± 0.29 kg/m3 | – | –
303.15 K, 65000 kPa | 943.48 ± 0.3 kg/m3 | – | –
305.65 K, 100 kPa | 890.87 ± 0.51 kg/m3 | 1161.8 ± 0.71 | 0.45 ± 0.0059
308.15 K, 100 kPa | 888.1 ± 0.51 kg/m3 and 888.06 ± 0.23 kg/m3 | 1151.5 ± 0.71 | 0.4372 ± 0.0059
308.15 K, 2000 kPa | 890.15 ± 0.23 kg/m3 | – | –
308.15 K, 5000 kPa | 893.04 ± 0.23 kg/m3 | – | –
308.15 K, 7000 kPa | 895.02 ± 0.24 kg/m3 | – | –
308.15 K, 10000 kPa | 897.93 ± 0.24 kg/m3 | – | –
308.15 K, 15000 kPa | 902.45 ± 0.25 kg/m3 | – | –
308.15 K, 20000 kPa | 906.8 ± 0.26 kg/m3 | – | –
308.15 K, 25000 kPa | 910.98 ± 0.27 kg/m3 | – | –
308.15 K, 30000 kPa | 914.84 ± 0.27 kg/m3 | – | –
308.15 K, 35000 kPa | 918.68 ± 0.28 kg/m3 | – | –
308.15 K, 40000 kPa | 922.47 ± 0.29 kg/m3 | – | –
308.15 K, 45000 kPa | 925.95 ± 0.29 kg/m3 | – | –
308.15 K, 50000 kPa | 929.45 ± 0.3 kg/m3 | – | –
308.15 K, 55000 kPa | 932.76 ± 0.3 kg/m3 | – | –
308.15 K, 60000 kPa | 936.18 ± 0.3 kg/m3 | – | –
308.15 K, 65000 kPa | 939.24 ± 0.3 kg/m3 | – | –
310.65 K, 100 kPa | 885.31 ± 0.51 kg/m3 | 1140.6 ± 0.71 | 0.4258 ± 0.0058
313.15 K, 100 kPa | – | – | 0.4149 ± 0.0058
